{"source": "patent US20250314644A1", "about": "“METHODS COMPRISING DETECTION OF ADP-HEPTOSE” (CHILDREN'S HOSPITAL MEDICAL CENTER, priority 2023, published 2025)", "key": {"[1]": {"system": "MDS BM cells", "assay": "Patient derived xenograft in NSG mice treated with ADP-heptose", "format": "in vivo, human", "settings": "immunocompromised mice, after 28 days", "description": "NOD.Cg-Prkdc^scidIl2rg^tm1Wj1/SzJ (NSG)^75 were bred and maintained by the CCHMC Comprehensive Mouse Core. For patient derived xenografts, NSG mice (sub-lethally conditioned with 2 Gy of whole-body irradiation) were injected tail vein with healthy CD34+ cells (1×10^6 cells per mouse) and MDS patient cells (5×10^6 cells per mouse) in 200 μl of sterile PBS. Mice were then given sterile water or ADP-heptose (0.5 mg/kg) dissolved in sterile water at the indicated times. Mice were monitored for human engraftment in BM aspirates Briefly, 1×10^6 BM cells from each sample were incubated with huCD45 (Cat no. 555485, BDPharmingen) and huCD33 (Cat no. 555450, BDPharmingen) antibodies diluted 1:100 in a solution of PBS, 0.2% FBS for 30 minutes on ice. Cells were washed once with PBS, resuspended in PBS with 0.2% FBS, and immediately analyzed by flow cytometry."}, "[2]": {"system": "WT HSCs", "assay": "ADP-heptose treatment of low-dose irradiated chimeric mice: donor HSC number and engraftment", "format": "in vivo, mouse", "settings": "ADP-heptose 0.5 mg/kg for 2 weeks", "excerpt": "To model pre-leukemic clonal hematopoiesis, chimeric mice were generated as aas follows. Briefly, mixture of 1×10^6 whole bone marrow cells (WBM) were obtained from Poly (I:C) treated wild-type (Dnmt3a^+/+; MxCre^+, called Dnmt3a^WT) or mutant mice (Dnmt3a^f/f; MxCre^+, called Dnmt3a^KO) or double mutant mice (Dnmt3a^f/f; MxCre^+; Alpk1^KO, called Dnmt3a^KO; Alpk1^KO) (CD45.2^+), and transplanted into low-dose (2.5 Gy) irradiated recipient mice (CD45.1^+; 6-10 weeks of age). 8 weeks post-transplant, chimeric mice were treated with either water (H2O) or DSS (2.5%) for 1 week, and allowed to recover for 1 more week on water after which flow cytometry was performed on BM. In separate experiment, chimeric mice were pre-treated with broad spectrum antibiotics (ABX) for 4 weeks, and then subjected to DSS for 1 week after which flow cytometry performed on BM. In a separate set of experiment, chimeric mice were treated with either H2O or ADP-heptose (0.5 mg/kg) for 2 weeks, and flow cytometry performed after 2 more weeks on BM. In all the experiments, secondary transplantation was performed by purifying donor HSCs (CD45.2^+Lin^−Sca-1^+c-Kit^+Flk2^−CD150^+CD48^−) and transplanting 100 HSCs with 200,000 helper WBM cells (CD45.1+) into lethally irradiated (8 Gy) recipient mice (CD45.1^+), and donor chimerism in PB examined by flow cytometry."}, "[3]": {"system": "Dnmt3a^−/− HSCs relative to WT HSCs", "assay": "In vitro HSC competition assay", "format": "cell-based, mouse", "settings": "co-culture, ADP-heptose for 14 days", "excerpt": "The polyvinyl alcohol-based in vitro HSC expansion protocol was adapted as previously described. (Wilkinson, A. C., et al. Long-term ex vivo haematopoietic-stem-cell expansion allows nonconditioned transplantation. Nature 571, 117-121 (2019) and Wilkinson, A. C., Ishida, R., Nakauchi, H. & Yamazaki, S. Long-term ex vivo expansion of mouse hematopoietic stem cells. Nat Protoc 15, 628-648 (2020).) 50 HSCs from WT-GFP (C57BL/6-Tg(UBC-GFP)30Scha/J, Cat no. 004353, Jackson Labs) and 50 HSCs from Dnmt3a^−/− mice were sorted directly into each well of a fibronectin-coated 96-well plate (Cat no. 08-774-60, Fisher Scientific) with Ham's F12 nutrient mix media (Cat no. 11765054, Thermo Fisher Scientific) containing final concentrations of 1× penicillin-streptomycin-glutamine (Cat no. 10378-016, Thermo Fisher Scientific), 10 mM HEPES (Cat no. 15630080, Thermo Fisher Scientific), 1× insulin-transferrin-selenium-ethanolamine (ITS-X, Cat no. 51500056, Thermo Fisher Scientific), 100 ng/mL recombinant murine TPO (Cat no. […] After 14 days of ADP-heptose treatment, cells were harvested, counted by trypan blue exclusion assay, and analyzed by flow cytometry. To enumerate cells, a defined number of CountBright Absolute Counting Beads (Thermo Fisher Scientific, Cat no. C36950) were added to each sample and cell count was back calculated to the proportion of the total that were run through the cytometer."}}, "data": [{"smiles": "Nc1ncnc2c1ncn2[C@@H]1O[C@H](COP(=O)(O)OP(=O)(O)O[C@@H]2O[C@H]([C@H](O)CO)[C@@H](O)[C@H](O)[C@@H]2O)[C@@H](O)[C@H]1O", "note": "[ADP-heptose, ADP-D-glycero-β-D-manno-heptose]", "values": [{"measurement": "expansion of xenografted MDS BM cells", "setting": "[1]", "value": "expanded"}, {"measurement": "WT HSCs numbers and engraftment in recipient mice", "setting": "[2]", "value": "did not affect"}, {"measurement": "in vitro competition of Dnmt3a^−/− HSCs relative to WT HSCs", "setting": "[3]", "value": "competitive advantage"}]}]}
